According to paper PMC9127739, “Hololectin Interdomain Linker Determines Asparaginyl Endopeptidase-Mediated Maturation of Antifungal Hevein-Like Peptides in Oats” (Frontiers in Plant Science, 2022):
Where a SMILES comes first, the peptide text is derived from it. Bridges are numbered along the chain shown (N, C = ends).

Legend:
[1] = tested on: Curvularia lunata (CICC 40301); assay: Anti-fungal microbroth dilution assay; format: cell-based; settings: 1 × 10^5 cells/mL spores in half-strength potato dextrose broth, 25°C, 24 h, crystal violet, absorbance 570 nm, read-out: IC50 against C. lunata
Description: (§1) Four phyto-pathogenic fungal strains from the China Center of Industrial Culture Collection (Beijing, China) were used to examine the anti-fungal activity of avenatide aV1: Alternaria alternata (CICC 2465), Curvularia lunata (CICC 40301), Fusarium oxysporum (CICC 2532), and Rhizoctonia solani (CICC 40259). Fungal strains were grown on potato dextrose agar plates at 25°C.
(§2) The half maximal inhibitory concentration levels (IC50) of avenatide aV1 were determined using a microbroth dilution assay ([Loo et al., 2021b]). Fungal spores were harvested from a 4-day old, actively growing fungal plate and suspended in half-strength potato dextrose broth. In the 96-well microplate, 1 × 10^5 cells/mL of spore suspension was mixed with peptides at varying concentrations and incubated at 25°C for 24 h. The cells were then fixed with 100% methanol for 15 min. Staining was done for 45 min with crystal violet dye. MilliQ water was used to remove excess dye. Elution was performed using 1:1 (v/v) ethanol/0.1 N HCl. Absorbance was measured at 570 nm.

[2] = tested on: Fusarium oxysporum (CICC 2532); assay: Anti-fungal microbroth dilution assay; format: cell-based; settings: 1 × 10^5 cells/mL spores in half-strength potato dextrose broth, 25°C, 24 h, crystal violet, absorbance 570 nm, read-out: IC50 against F. oxysporum
Description: as §1, §2

[3] = tested on: carboxypeptidase A; assay: Exoproteolytic enzyme stability assay, carboxypeptidase A; format: in vitro ADME; settings: carboxypeptidase A (isolated exopeptidase); 200 μM peptide, 100 nM carboxypeptidase A, 50 mM Tris-HCl, 100 mM sodium chloride, 37°C, 4 h (time-points 0 and 6 h); quenched with 1 M HCl; RP-UPLC; n = 3; read-out: Peptide retained after carboxypeptidase A treatment
Description: (§3) Purified avenatides aV1 and S-alkylated aV1 were incubated under the stated conditions and recommended buffer solution. At each time interval, aliquots of samples were taken and RP-UPLC was performed in triplicate.
Purified avenatide aV1 (200 μM) were added to 50 mM Tris-HCl, 100 mM sodium chloride with 100 nM carboxypeptidase A or 20 mM tricine and 0.05% bovine serum albumin (pH 8.0) with 20 U/mL aminopeptidase I. The mixture was incubated in a 37°C water bath for 4 h. At each time-point ([…]), 20 μL of the treated sample was aliquoted and quenched with 5 μL 1 M hydrochloric acid. RP-UPLC was performed to determine the amounts of avenatide aV1 present before and after treatment.

[4] = tested on: trypsin; assay: Peptide stability assay, trypsin (endopeptidase); format: in vitro ADME; settings: recommended buffer, RP-HPLC, n = 3
Description: as §3

## CC(C)C[C@@H]1NC(=O)CNC(=O)[C@@H]2CSSC[C@@H]3NC(=O)[C@@H]4CCCN4C(=O)[C@H](CO)NC(=O)[C@H](CO)NC(=O)[C@H](CO)NC(=O)[C@H](CO)NC(=O)[C@@H](NC(=O)[C@H](C)N)CSSC[C@H](NC(=O)[C@H](CSSC[C@@H](C(=O)NCC(=O)N[C@@H](CO)C(=O)NCC(=O)N[C@H]4CSSC[C@@H](C(=O)N[C@H](C(=O)NCC(=O)N[C@@H](C)C(=O)O)[C@@H](C)O)NC(=O)[C@@H]5CCCN5C(=O)CNC(=O)[C@H](CO)NC(=O)[C@H](CCC(N)=O)NC4=O)NC(=O)[C@H](Cc4ccc(O)cc4)NC(=O)[C@H](CC(=O)O)NC(=O)CNC(=O)CNC1=O)NC(=O)[C@H](CCC(N)=O)NC(=O)[C@H](CC(N)=O)NC(=O)CNC(=O)[C@@H]1CCCN1C3=O)C(=O)N[C@@H](CO)C(=O)N[C@@H](CCCCN)C(=O)N[C@@H](Cc1c[nH]c3ccccc13)C(=O)NCC(=O)N[C@@H](Cc1ccc(O)cc1)C(=O)N2 [avenatide aV1] (H-ACSSSSPCPGNQCCSKWGYCGLGGDYCGSGCQSGPCTGA-OH; disulfide 2-14, 8-20, 13-27, 31-36)
[1]
  IC50: 74 µM
[2]
  IC50: 53 µM
[3]
  remaining at 4 h, 200 μM: > 80%
[4]
  Peptide retained after trypsin treatment: > 80%
